From patent US8993593B2, “N-(4-(6-fluoro-3,4-dihydroisoquinolin-2(1H)-yl)-2,6-dimethylphenyl)-3,3-dimethylbutanamide as potassium channel modulators” (Valeant Pharmaceuticals International, priority 2006, dated 2015)

Assays:
[1] = tested on: mouse maximal electroshock seizure (MES) model; test: Maximal electroshock seizure (MES) test, mouse; assay type: in vivo; settings: MES, mouse; read-out: Mouse ED50
From the text: (§1) The MES testing protocol is based on procedures established at the National Institute of Neurological Disorders and Stroke in conjunction with the Anticonvulsant Screening Program (ASP) at the University of Utah (White, H. S., Woodhead, J. H., Wilcox, K. S., Stables, J. P., Kupferberg, H. J and Wolf, H. H. 2002. “General Principles: Discovery and Preclinical Development of Antiepileptic Drugs,” in Antiepileptic Drugs, 5th Edition, R. H. Levy, ed.; R. H. Mattson, B. S. Meldrum, and E. Perucca. Philadelphia, Lippincott Williams & Wilkins.), The goal of the test rapid identification and characterization of the in vivo anticonvulsant activity of any compounds that have been shown active in PC-12 cellular based Rb^+ efflux assay.
(§2) Adult male CF-I albino mice (18-25 g, Charles River Laboratories) are exclusively used for in-house MES screen of compounds. Male Sprague-Dawley albino rats (100-125 g, Charles River Laboratories) are also used to test anticonvulsant compounds. Variability of test outcomes is reduced by using animals of the same sex, age, and weight. Animals are permitted to rest and recover from transit for at least 48 hr prior to experimentation. Animals are used for AED testing only once. In some instances, the animals may be anesthetized prior to blood collection and/or whole brain extraction for pharmacokinetic assay. All animals are maintained and handled as outlined in standard animal care guidelines.
(§3) In the experiments, testing compounds are prepared as suspensions in 0.5% methyl cellulose (Sigma, Cat #M0512, Viscosity 4000 cP at 20° C.) in water, regardless of solubility. Dry powder compounds are initially ground with a glass rod in a test tube in several drops of methyl cellulose to create a paste and to break down any large chunks. After several minutes of grinding, the volume of the suspension is increased to the final concentration desired. The suspension is then sonicated using a Branson sonicator model 3510 in a water bath at room temperature for 15 minutes. Compound suspensions are further vortexed prior to animal dosing. In some of the cases, DMSO is used to initially solubilize compounds in small volumes and then this solution is added to the 0.5% methyl cellulose solution, in order to create more even and less aggregated compound suspensions. The final concentration of DMSO is 3.75%, an amount with no apparent toxicity or neuroprotective effects in our usual rotarod and MES tests. Methyl cellulose/DMSO compound suspensions are identically prepared for intraperitoneally (i.p.) to mice or orally (p.o.) to rat dosing.
Initially the animals are weighed with an electronic scale and then marked. Data recording sheets are generated for each compound assessment. Mice or rats are dosed with the compound suspension at 0.01 mL/g of body weight. The typical injection volume range is between 180-250 μl for mice. […] Rats are p.o. dosed using a flexible feeding tube, typically starting at a compound dose of 5 mg/kg.
A Rodent Electroconvulsive Stimulator (Model 200, Hamit-Darvin-Freesh, Snow Canyon Clinic, Ivins, Utah) is used for MES testing. A 60-Hz alternating current (50 mA for mice; 150 mA for rats) is delivered for 0.2 seconds through corneal electrodes to the mice. A drop of 0.5% tetracaine (Sigma, Cat. #T-7508) solution is placed on the eye prior to current delivery. The electrodes are subsequently placed gently onto the eyes of the animal and the electrical shock is initiated by triggering through a foot-pedal activator. The animals are restrained by hand and gently released as the shock is delivered and the seizure commences. Animals are monitored for hind limb tonic extension as the end point for this test. Current delivery is recorded as a measure of overall seizure-induction potential. Electrical current delivery can vary from approximately 30-55 mA (mice) or 90-160 mA (rats) depending on impedance in the animal and quality of the current delivery (ie. correct placement of the electrodes on the cornea). […]

[2] = tested on: rat MES model of epilepsy; test: Maximal electroshock seizure (MES) test, rat; assay type: in vivo; settings: MES, rat; read-out: Rat ED50
From the text: as §1, §2, §3
Initially the animals are weighed with an electronic scale and then marked. Data recording sheets are generated for each compound assessment. Mice or rats are dosed with the compound suspension at 0.01 mL/g of body weight. The typical injection volume range is between 180-250 μl for mice. Compounds are dosed by i.p. to mice using a 25 or 22 gauge needle, depending on the viscosity of the suspension. Rats are p.o. dosed using a flexible feeding tube, typically starting at a compound dose of 5 mg/kg.
A Rodent Electroconvulsive Stimulator (Model 200, Hamit-Darvin-Freesh, Snow Canyon Clinic, Ivins, Utah) is used for MES testing. A 60-Hz alternating current (50 mA for mice; 150 mA for rats) is delivered for 0.2 seconds through corneal electrodes to the mice. […] Animals are monitored for hind limb tonic extension as the end point for this test. Current delivery is recorded as a measure of overall seizure-induction potential. […]

KCNQ2/3 = KCNQ2/3 (Homo sapiens, UniProt O43525+O43526); test: Two-electrode voltage-clamp in Xenopus laevis oocytes, KCNQ2/3; assay type: cell-based; settings: oocyte expression, at EC75
Protocol: (§4) Female Xenopus laevis extracted ovaries were purchased from eNASCO (LM00935MX, eNASCO Fort Atkinson, Wis.). […] Approximately 50 nl cRNA (about 50 ng) was injected for KCNQ1, KCNQ4, and KCNQ5 using a Nanoject microinjector (Drummond, Broomall, Pa., USA). For co-expression of KCNQ2 and KCNQ3 and of KCNQ1 and KCNE1, cRNA's were mixed in equal molar ratios before injection of approximately 50 nl. […] Oocytes were kept in Culture Barth solution at 19° C. which was changed daily and currents were recorded after 3 to 5 days.
(§5) KCNQ channel currents expressed in Xenopus laevis oocytes were recorded using a two-electrode voltage-clamp. […] The oocytes were placed in custom built perfusion chambers connected to a continuous flow system and impaled with a current electrode and a voltage-clamp electrode pulled from borosilicate glass on a Flaming/Brown Micropipette Puller (Sutter Instruments Co, Novato, Calif., USA).
(§6) All compounds were dissolved in DMSO to obtain concentrated stock solutions. On the day of electrophysiological experiments the stock solutions were thawed and diluted in recording solution to their final concentrations. The final DMSO concentration never exceeded 0.1%. Compound delivery was performed using a custom built multi-barrel apparatus connected to the flow system.
(§7) Data were acquired by means of an Axograph X software (Axograph Scientific, Sydney, AU) and analyzed using Graph Pad Prism (GraphPad Software Inc., CA, USA). […]
(§8) After steady channel current was recorded in the presence of Retigabine at its EC75, recorded oocyte was washed with the recording solution until its steady current returned to its normal level without the presence of any drugs. Then the channel steady current was recorded in the presence of the test compound at its EC75. The percent efficacy was then expressed as: % efficacy=(C2/C 1)×100 where C2 is the recorded steady current in the presence of follow-on compound at its EC75 and C1 is the recorded steady current in the presence of Retigabine at its EC75.

KCNQ1/NE1 = KCNQ1/NE1 (Homo sapiens, UniProt P51787); test: Two-electrode voltage-clamp in Xenopus laevis oocytes, KCNQ1/KCNE1; assay type: cell-based; parameters: dose or concentration left out as unconfirmed; settings: oocyte expression
KCNQ1/NE1, sequence (P51787 whole entry): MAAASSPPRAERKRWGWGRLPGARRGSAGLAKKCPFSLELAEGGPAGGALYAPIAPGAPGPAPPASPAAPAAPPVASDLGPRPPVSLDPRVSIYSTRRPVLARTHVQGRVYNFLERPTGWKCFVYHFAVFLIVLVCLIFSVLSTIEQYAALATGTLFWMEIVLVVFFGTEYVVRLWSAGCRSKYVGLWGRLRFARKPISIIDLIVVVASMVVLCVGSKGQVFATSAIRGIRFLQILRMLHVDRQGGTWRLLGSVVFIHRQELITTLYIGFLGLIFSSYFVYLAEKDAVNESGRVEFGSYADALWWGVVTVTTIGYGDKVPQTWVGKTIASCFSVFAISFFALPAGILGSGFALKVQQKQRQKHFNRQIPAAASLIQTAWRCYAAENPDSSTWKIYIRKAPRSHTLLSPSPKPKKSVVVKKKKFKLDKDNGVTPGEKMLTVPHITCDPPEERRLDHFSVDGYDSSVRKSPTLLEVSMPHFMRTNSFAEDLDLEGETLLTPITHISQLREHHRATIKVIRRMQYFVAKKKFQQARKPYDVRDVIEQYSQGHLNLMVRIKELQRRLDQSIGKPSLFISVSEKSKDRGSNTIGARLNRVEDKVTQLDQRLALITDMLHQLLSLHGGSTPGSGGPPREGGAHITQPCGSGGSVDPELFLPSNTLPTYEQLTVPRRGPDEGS
Protocol: as §4
KCNQ channel currents expressed in Xenopus laevis oocytes were recorded using a two-electrode voltage-clamp. […]
as §7, §8

KCNQ4 = KCNQ4 (Homo sapiens, UniProt P56696); test: Two-electrode voltage-clamp in Xenopus laevis oocytes, KCNQ4; assay type: cell-based; settings: oocyte expression, at EC75
Protocol: as §4, §5, §6, §7, §8

KCNQ1 = KCNQ1 (Homo sapiens, UniProt P51787); test: Two-electrode voltage-clamp in Xenopus laevis oocytes, KCNQ1; assay type: cell-based; parameters: KCNQ1 Block (%): dose or concentration left out as unconfirmed; settings: oocyte expression
Protocol: as §4, §5, §6, §7, §8

KCNQ2 channels = target: T1, KCNQ2 channels (Homo sapiens, UniProt O43526); test: Potassium ion efflux, KCNQ2 channels expressed in CHO cells; assay type: cell-based
T1 construct: expressed in transfected cells; host or cells: CHO cells
T1 sequence (O43526 whole entry): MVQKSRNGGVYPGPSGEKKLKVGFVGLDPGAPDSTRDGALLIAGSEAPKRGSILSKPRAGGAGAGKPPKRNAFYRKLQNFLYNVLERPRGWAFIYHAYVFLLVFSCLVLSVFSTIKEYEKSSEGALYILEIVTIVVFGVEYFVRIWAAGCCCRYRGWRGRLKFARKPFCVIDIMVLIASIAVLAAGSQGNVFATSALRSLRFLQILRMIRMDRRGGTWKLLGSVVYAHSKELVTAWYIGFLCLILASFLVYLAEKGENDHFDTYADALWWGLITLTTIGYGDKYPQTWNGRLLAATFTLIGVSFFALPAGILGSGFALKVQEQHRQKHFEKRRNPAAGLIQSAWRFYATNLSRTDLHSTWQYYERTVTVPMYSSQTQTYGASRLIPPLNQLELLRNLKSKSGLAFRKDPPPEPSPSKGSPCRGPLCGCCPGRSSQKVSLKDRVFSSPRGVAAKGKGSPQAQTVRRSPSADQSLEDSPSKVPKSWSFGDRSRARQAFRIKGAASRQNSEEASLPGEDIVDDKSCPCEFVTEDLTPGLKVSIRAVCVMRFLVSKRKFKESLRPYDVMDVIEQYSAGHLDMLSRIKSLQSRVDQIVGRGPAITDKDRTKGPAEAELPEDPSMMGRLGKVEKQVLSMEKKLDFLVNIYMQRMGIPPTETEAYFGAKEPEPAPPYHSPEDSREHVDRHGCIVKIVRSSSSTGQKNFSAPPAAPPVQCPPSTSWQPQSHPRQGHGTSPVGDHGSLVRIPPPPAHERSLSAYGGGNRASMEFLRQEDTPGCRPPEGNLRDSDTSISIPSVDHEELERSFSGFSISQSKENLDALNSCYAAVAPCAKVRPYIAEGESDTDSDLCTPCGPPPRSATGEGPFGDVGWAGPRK
Protocol: Using natively expressed M-currents present in differentiated pheochromocytoma (PC-12) cells and CHO cells transfected with KCNQ2 and hERG potassium channels, the in vitro activity of compound A on potassium ion efflux was determined.
The EC50 values for retigabine and compound A on the activation of KCNQ2 channels expressed in CHO cells were determined on three separate occasions in triplicate.

KCNQ5 = KCNQ5 (Homo sapiens, UniProt Q9NR82); test: Two-electrode voltage-clamp in Xenopus laevis oocytes, KCNQ5; assay type: cell-based; settings: oocyte expression, at EC75
Protocol: as §4, §5, §6, §7, §8

Row | Structure (SMILES) | ED50 [1] [mg/kg] | other results
1 | CC(C)(C)CC(=O)Nc1c(Cl)cc(N2CCc3ccccc3C2)cc1C(F)(F)F | > 12 | –
2 | O=C(CCC1CCCC1)Nc1c(Cl)cc(N2CCc3ccccc3C2)cc1C(F)(F)F | > 12 | –
3 | Cc1cc(N2CCc3ccccc3C2)cc(C)c1NC(=O)CC(C)(C)C | 0.12 to 1.2 | –
4 | CC(C)(C)CC(=O)Nc1c(Cl)cc(N2CCc3cc(F)ccc3C2)cc1C(F)(F)F | > 12 | –
5 | Cc1cc(N2CCc3ccccc3C2)cc(Cl)c1NC(=O)CC(C)(C)C | 0.12 to 1.2 | –
6 | Cc1cc(N2CCc3ccc(F)cc3C2)cc(C)c1NC(=O)CC(C)(C)C | 0.12 to 1.2 | –
7 | Cc1cc(N2CCc3cc(F)ccc3C2)cc(Cl)c1NC(=O)CC(C)(C)C | > 12 | –
8 | Cc1cc(N2CCc3cc(C(F)(F)F)ccc3C2)cc(Cl)c1NC(=O)CC(C)(C)C | > 12 | –
9 | CC(C)(C)CC(=O)Nc1c(Cl)cc(N2CCc3cc(C(F)(F)F)ccc3C2)cc1C(F)(F)F | > 12 | –
10 | Cc1cc(N2CCc3cc(C(F)(F)F)ccc3C2)cc(C)c1NC(=O)CC(C)(C)C | 0.12 to 1.2 | ED50 [2]: 0.12 to 1.2 mg/kg
11 | O=C(CCC1CCCC1)Nc1c(Cl)cc(N2CCc3cc(F)ccc3C2)cc1C(F)(F)F | > 12 | –
12 | Cc1cc(N2CCc3cc(Cl)ccc3C2)cc(C)c1NC(=O)CC(C)(C)C | 0.12 to 1.2 | –
13 | CC(C)(C)CC(=O)Nc1c(Cl)cc(N2CCc3cc(Cl)ccc3C2)cc1C(F)(F)F | > 12 | –
14 | Cc1cc(N2CCc3ccc(F)cc3C2)cc(Cl)c1NC(=O)CC(C)(C)C | 0.12 to 1.2 | –
15 | Cc1cc(N2CCc3cc(Cl)ccc3C2)cc(Cl)c1NC(=O)CC(C)(C)C | 0.12 to 1.2 | –
16 | CC(C)(C)CC(=O)Nc1c(Cl)cc(N2CCc3ccc(F)cc3C2)cc1C(F)(F)F | > 12 | –
17 | CC(C)(C)CC(=O)Nc1ccc(N2CCc3cc(F)ccc3C2)cc1Cl | > 12 | –
18 | CC(C)(C)CC(=O)Nc1ccc(N2CCc3cc(F)ccc3C2)cc1C(F)(F)F | 0.12 to 1.2 | –
19 | CC(C)(C)CC(=O)Nc1ccc(N2CCc3cc(C(F)(F)F)ccc3C2)cc1Cl | > 12 | –
20 | Cc1cc(N2CCc3ccc(C(F)(F)F)cc3C2)cc(C)c1NC(=O)CC(C)(C)C | 0.12 to 1.2 | ED50 [2]: 0.12 to 1.2 mg/kg
21 | COc1cc(N2CCc3ccccc3C2)cc(C)c1NC(=O)CC(C)(C)C | 0.12 to 1.2 | –
22 | CC(C)(C)CC(=O)Nc1c(Cl)cc(N2CCc3ccccc3C2)cc1OC(F)(F)F | > 12 | –
23 | COc1cc(N2CCc3ccccc3C2)cc(OC)c1NC(=O)CC(C)(C)C | 0.12 to 1.2 | ED50 [2]: 0.12 to 1.2 mg/kg
24 | CC(C)(C)CC(=O)Nc1ccc(N2CCc3ccc(C(F)(F)F)cc3C2)cc1C(F)(F)F | 0.12 to 1.2 | –
25 | COc1ccc2c(c1)CCN(c1cc(C)c(NC(=O)CC(C)(C)C)c(C)c1)C2 | > 12 | –
26 | Cc1cc(N2CCc3cc(F)ccc3C2)cc(C)c1NC(=O)CC(C)(C)C [drawing 119] | 0.12 to 1.2 | ED50 [2]: 0.12 to 1.2 mg/kg
27 | CCOC(=O)Nc1ccc(NCc2ccc(F)cc2)cc1N [retigabine, N-[2-amino-4-(4-fluorobenzylamino)phenyl]carbamic acid, ethyl ester, reference compound] | – | KCNQ2/3 Efficacy Relative to Retigabine (%) (KCNQ2/3): 100%; KCNQ1/NE1 Block (%) (KCNQ1/NE1): 4.3%; KCNQ4 Efficacy Relative to Retigabine (%) (KCNQ4): 100%; KCNQ1 Block (%) (KCNQ1): 12%; EC50 (KCNQ2 channels): 291 nM; KCNQ5 Efficacy Relative to Retigabine (%) (KCNQ5): 100%
